Assay results from US6979471B1, “Composition comprising pharmaceutical/nutraceutical agent and a bio-enhancer obtained from Glycyrrhiza glabra” (Council of Scientific and Industrial Research, priority 2000, dated 2005).

What was measured:
Format in all cases: cell-based
[1] = system: Candida albicans (ATCC 10231); assay: Disc diffusion assay, antifungal agent against Candida albicans
Experimental: (§1) • a) The minimum inhibitory concentration (MIC) of any antibiotic or drug molecule is determined against Escherichia coli (ATCC 10536), Bacillus subtilis (ATCC 6015) and Mycobacterium smegmatis (ATCC 14468) and Candida albicans (ATCC 10231) in broth and disc diffusion assays. • b) The antibiotics or antifungal agents at concentrations 1/10, ⅛, ⅙, ¼, ⅓, ½ and equal to MIC are added alone and in combination with the test compound at varying concentrations in broth assays to evaluate the comparative level of inhibition and similarly at varying concentrations in disc diffusion assay. • c) The combinations showing enhancement in terms of higher activity than antibiotic alone for the inhibition of bacterial growth (large inhibition zone in disc diffusion and higher killing at lower concentration in broth assay) are picked up for future testing. • d) In broth assays the activity is quantified by counting number of viable cells in a given treatment and converted in fold enhancement by the combination treatment compared to antibiotic/drug alone in the killing percentage of cells. • e) The pretreatment assay is followed to determine whether the bioenhancer which may be either an extract obtained from the plant Glycyrrhiza glabra, glycyrrhizin or glycyrrhizic acid, is required along with antibiotic to enhance its activity or even its withdrawal after treatment or prior to antibiotic treatment would benefit. […] Assay for Bio-Enhancement of Anti-Cancer Agents • a) MCF-7 (Breast cancer cell line is inoculated at a density of about 0.1×10^6 cells in MEM medium in the wells of 24 well plate. • b) The used up medium in these cultures is replaced with fresh medium after 18 hours in each well. • c) The test compound (s) is added at desired concentrations in different wells just after the medium replacement. • d) Observations are recorded on the cell count after 36 hours for which the following steps are required. • i. […] The number of viable cells is counted in 5 big squares and the reading is taken from 5 microscopic fields to determine the average. • viii. […]

[2] = system: Escherichia coli (ATCC 10536); assay: Broth assay for bio-enhancement of antibiotics: viable cell count, Escherichia coli; settings: Table 1; for *Folds enhancement in antibiotic activity (a/b): glycyrrhizin 1 μg/ml
[3] = system: Mycobacterium smegmatis (ATCC 14468); assay: Broth assay for bio-enhancement of antibiotics: viable cell count, Mycobacterium smegmatis; settings: Table 3; for *Folds enhancement in antibiotic activity (a/b): glycyrrhizin 1 μg/ml
Experimental: (§2) For this, the cells are treated with the bioenhancer/compound for 4 to 8 hours and then washed free of it by centrifugation and washing in sterile water. […] 2. Assay for Bio-Enhancement of Anti-Cancer Agents • a) MCF-7 (Breast cancer cell line is inoculated at a density of about 0.1×10^6 cells in MEM medium in the wells of 24 well plate. • b) The used up medium in these cultures is replaced with fresh medium after 18 hours in each well. • c) The test compound (s) is added at desired concentrations in different wells just after the medium replacement. • d) Observations are recorded on the cell count after 36 hours for which the following steps are required. • i. The medium is removed from the wells. • ii. The wells are rinsed with 1 ml PBS (Phosphate buffer saline). • iii. To each well 500 μl of freshly prepared trypsin solution (0.1% in PBS) is added. • iv. Trypsin solution is removed after 30 seconds and the plate is gently tapped till the cells are released from the plate surface. • v. Fresh 1 ml of MEM growth medium is added and agitated with a pipette to obtain a cell suspension. • vi. 10 μl of cell suspension is taken on the haemocytometer and a cover glass is placed over the counting chamber. • vii. The number of viable cells is counted in 5 big squares and the reading is taken from 5 microscopic fields to determine the average. • viii. The cell count (titre per ml) in the original sample is then calculated as average count×10^3. Composition of Minimum Essential Medium (MEM): 100 ml
(§3) In the next step of elucidation of the enhancer action the applicants experimented with the killing activities of different antibiotics against the bacteria singly and in combination with the test compound glycyrrhizin following the method described above. These experiments are to be considered with assay for bioenhancement of the compounds glycyrrhizin/glycyrrhizic acid and licorice, as described earlier. […] In all the experiments the glycyrrhizin concentration was kept at 1 μg/ml, unless it is specifically mentioned.

[4] = system: Bacillus subtilis (ATCC 6015); assay: Broth assay for bio-enhancement of antibiotics: viable cell count, Bacillus subtilis
Experimental: as §3

[5] = system: MCF-7 (Breast cancer cell line); assay: Assay for bio-enhancement of anti-cancer agents: viable cell count after 36 hours; settings: for Final titre of viable cells upon treatment with taxol-glycyrrhizin combination / Final titre of viable cells upon treatment with taxol alone: initial titre 0.1 × 10^6, 36 hours
Experimental: as §2

Escherichia coli = assay: Disc diffusion assay against Escherichia coli; settings: Escherichia coli; read-out: Net zone of inhibition
Experimental: as §1

Mycobacterium smegmatis = assay: Disc diffusion assay against Mycobacterium smegmatis; settings: Mycolicibacterium smegmatis; read-out: Net zone of inhibition
Experimental: as §1

[6] = antibiotic 8 μg/ml + glycyrrhizin 1 μg/ml
[7] = antibiotic 4 μg/ml + glycyrrhizin 1 μg/ml

In the case of Clc1ccccc1C(c1ccccc1)(c1ccccc1)n1ccnc1 [Clotrimazole], the zone of inhibition at 4 µg/disc ([1]; Candida albicans, ATCC10231, clotrimazole 4 μg/disc alone, glycyrrhizin 0) is reported as 7 mm and the Zone of inhibition ([1]; clotrimazole 4 μg/disc + glycyrrhizin 1 μg/disc) is reported as 11 mm.
CC1(C)S[C@@H]2[C@H](NC(=O)[C@H](N)c3ccccc3)C(=O)N2[C@H]1C(=O)O [Ampicillin] was tested, and the “Survival fraction of viable cells upon treatment with antibiotic alone (a)” value (shortened to “Survival fraction … (a)”) ([2]; antibiotic 6 μg/ml) was 0.38, the “Survival fraction of viable cells upon treatment with antibiotic- glycyrrhizin combination (b)” value ([2]; antibiotic 6 μg/ml + glycyrrhizin 1 μg/ml) was 0.03 and the “*Folds enhancement in antibiotic activity (a/b)” value (shortened to “*Folds enhancement”) ([2]; antibiotic 6 μg/ml) was 12.6 folds. The “Survival fraction … (a)” value ([2]; antibiotic 8 μg/ml) was 0.013, the “Survival fraction of viable cells upon treatment with antibiotic- glycyrrhizin combination (b)” value [2, 6] was 0.006 and the “*Folds enhancement” value ([2]; antibiotic 8 μg/ml) was 2.1 folds.
With CCn1cc(C(=O)O)c(=O)c2ccc(C)nc21 [Nalidixic acid] the “Survival fraction … (a)” value ([3]; antibiotic 4 μg/ml) was 0.70, the “Survival fraction of viable cells upon treatment with antibiotic- glycyrrhizin combination (b)” value [3, 7] was 0.12 and the “*Folds enhancement” value ([3]; antibiotic 4 μg/ml) was 7.7 folds. For the same molecule, the “Survival fraction … (a)” value ([4]; Table 2, antibiotic 6 μg/ml) was 0.50, the “Survival fraction of viable cells upon treatment with antibiotic- glycyrrhizin combination (b)” value ([4]; Table 2, antibiotic 6 μg/ml + glycyrrhizin 1 μg/ml) was 0.11 and the “*Folds enhancement” value ([4]; Table 2, antibiotic 6 μg/ml, glycyrrhizin 1 μg/ml) was 4.50 folds. The “Survival fraction … (a)” value ([4]; Table 2, antibiotic 8 μg/ml) was 0.27, the “Survival fraction of viable cells upon treatment with antibiotic- glycyrrhizin combination (b)” value ([4]; Table 2, antibiotic 8 μg/ml + glycyrrhizin 1 μg/ml) was 0.04 and the “*Folds enhancement” value ([4]; Table 2, antibiotic 8 μg/ml, glycyrrhizin 1 μg/ml) was 6.75 folds. The “Survival fraction … (a)” value ([4]; Table 11, antibiotic 6 μg/ml) was 0.500, the “Survival fraction of viable cells upon treatment with antibiotic glycyrrhizic acid combination (b)” value ([4]; Table 11, antibiotic 6 μg/ml + licorice 25 μg/ml) was 0.121 and the “*Folds enhancement” value ([4]; Table 11, antibiotic 6 μg/ml, licorice 25 μg/ml) was 4.10 folds. The “Survival fraction … (a)” value ([2]; antibiotic 8 μg/ml) was 0.19, the “Survival fraction of viable cells upon treatment with antibiotic- glycyrrhizin combination (b)” value [2, 6] was 0.02 and the “*Folds enhancement” value ([2]; antibiotic 8 μg/ml) was 9.5 folds.
CC(=O)O[C@H]1C(=O)[C@@]2(C)[C@H]([C@H](OC(=O)c3ccccc3)[C@]3(O)C[C@H](OC(=O)[C@H](O)[C@@H](NC(=O)c4ccccc4)c4ccccc4)C(C)=C1C3(C)C)[C@]1(OC(C)=O)CO[C@@H]1C[C@@H]2O [Taxol, Paclitaxel (Taxol)] was tested, and the “Cancerous cells growth inhibition by Taxol in presence of glycyrrhizin, compared with taxol alone” value ([5]; Taxol 0.01 μg/ml + glycyrrhizin 1 μg/ml versus taxol 0.05 μg/ml alone) was “higher than even the treatment with taxol (@ 0.05 μg/ml) alone”, the “Final titre of viable cells upon treatment with taxol-glycyrrhizin combination” value ([5]; taxol 0.01 μg/ml + glycyrrhizin 1 μg/ml) was 0.025 × 10^6 per ml and the “Final titre of viable cells upon treatment with taxol alone” value (from here on “Final titre … with taxol alone”) ([5]; taxol 0.01 μg/ml) was 0.05 × 10^−6 per ml. The “Final titre of viable cells upon treatment with taxol-glycyrrhizin combination” value ([5]; taxol 0.02 μg/ml + glycyrrhizin 1 μg/ml) was 0.024 × 10^6 per ml, the “Final titre … with taxol alone” value ([5]; taxol 0.02 μg/ml) was 0.04 × 10^−6 per ml and the “Final titre of viable cells upon treatment with taxol-glycyrrhizin combination” value ([5]; taxol 0.05 μg/ml + glycyrrhizin 1 μg/ml) was 0.021 × 10^6 per ml. For the same molecule, the “Final titre … with taxol alone” value ([5]; taxol 0.05 μg/ml) was 0.03 × 10^−6 per ml and the “Enhancement of anticancerous activity (inhibiting growth and multiplication of MCF-7 cells) by glycyrrhizin” value ([5]; taxol with glycyrrhizin 1 μg/ml) was “at least 5 folds”.
CC1(C)[C@@H](O[C@H]2O[C@H](C(=O)O)[C@@H](O)[C@H](O)[C@H]2O[C@@H]2O[C@H](C(=O)O)[C@@H](O)[C@H](O)[C@H]2O)CC[C@]2(C)[C@H]3C(=O)C=C4[C@@H]5C[C@@](C)(C(=O)O)CC[C@]5(C)CC[C@@]4(C)[C@]3(C)CC[C@@H]12 [Glycyrrhizic acid] showed a zone of inhibition at 4 µg/disc (Escherichia coli) of 0 mm and a zone of inhibition at 4 µg/disc (Mycobacterium smegmatis) of 0 mm.
CN(C)[C@@H]1C(O)=C(C(N)=O)C(=O)[C@@]2(O)C(O)=C3C(=O)c4c(O)cccc4[C@@](C)(O)[C@H]3C[C@@H]12 [Tetracycline] was tested, and the “Survival fraction … (a)” value ([3]; antibiotic 0.5 μg/ml) was 0.3, the “Survival fraction of viable cells upon treatment with antibiotic- glycyrrhizin combination (b)” value ([3]; antibiotic 0.5 μg/ml + glycyrrhizin 1 μg/ml) was 0.2 and the “*Folds enhancement” value ([3]; antibiotic 0.5 μg/ml) was 1.5 folds. For the same molecule, the “Survival fraction … (a)” value ([4]; Table 2, antibiotic 1 μg/ml) was 0.10, the “Survival fraction of viable cells upon treatment with antibiotic- glycyrrhizin combination (b)” value ([4]; Table 2, antibiotic 1 μg/ml + glycyrrhizin 1 μg/ml) was 0.02 and the “*Folds enhancement” value ([4]; Table 2, antibiotic 1 μg/ml, glycyrrhizin 1 μg/ml) was 5.00 folds. The “Survival fraction … (a)” value ([2]; antibiotic 2 μg/ml) was 0.42, the “Survival fraction of viable cells upon treatment with antibiotic- glycyrrhizin combination (b)” value ([2]; antibiotic 2 μg/ml + glycyrrhizin 1 μg/ml) was 0.22 and the “*Folds enhancement” value ([2]; antibiotic 2 μg/ml) was 1.9 folds. For the same molecule, the “Survival fraction … (a)” value ([2]; antibiotic 4 μg/ml) was 0.27, the “Survival fraction of viable cells upon treatment with antibiotic- glycyrrhizin combination (b)” value [2, 7] was 0.03 and the “*Folds enhancement” value ([2]; antibiotic 4 μg/ml) was 9.0 folds.
